Data taken from PubChem BioAssay (NCI).
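Growth conditions: 96-well plates. Treatment: test compound, 48 hours, 5 concentrations. Analysis: linear interpolation between bracketing concentrations; unreached endpoints set to highest concentration. Here, GI50 denotes the concentration required for 50% inhibition of growth. The concentration for full growth arrest is given as TGI.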

How the values were obtained:
Test in all cases: growth of human tumour cells (NCI), 48 h
SF-539 CNS = tested on: SF-539 CNS
786-0 renal = tested on: 786-0 renal
HCT-15 colon = tested on: HCT-15 colon
EKVX NSCLC = tested on: EKVX NSCLC
MCF7 breast = tested on: MCF7 breast
HT29 colon = tested on: HT29 colon
SW-620 colon = tested on: SW-620 colon
SF-268 CNS = tested on: SF-268 CNS
NCI-H23 lung = tested on: NCI-H23 lung
UO-31 renal = tested on: UO-31 renal
ACHN renal = tested on: ACHN renal
PC-3 prostate = tested on: PC-3 prostate
SNB-75 CNS = tested on: SNB-75 CNS
T-47D breast = tested on: T-47D breast
MALME-3M melanoma = tested on: MALME-3M melanoma
A498 renal = tested on: A498 renal
SK-MEL-2 melanoma = tested on: SK-MEL-2 melanoma
OVCAR-3 ovarian = tested on: OVCAR-3 ovarian
NCI-H522 lung = tested on: NCI-H522 lung
K-562 leukemia = tested on: K-562 leukemia
OVCAR-4 ovarian = tested on: OVCAR-4 ovarian
SF-295 CNS = tested on: SF-295 CNS
MDA-MB-435 = tested on: MDA-MB-435
MOLT-4 leukemia = tested on: MOLT-4 leukemia
OVCAR-8 ovarian = tested on: OVCAR-8 ovarian
HOP-92 NSCLC = tested on: HOP-92 NSCLC
SK-MEL-5 melanoma = tested on: SK-MEL-5 melanoma
NCI-H226 lung = tested on: NCI-H226 lung
TK-10 renal = tested on: TK-10 renal
SK-MEL-28 melanoma = tested on: SK-MEL-28 melanoma
SR leukemia = tested on: SR leukemia
UACC-257 melanoma = tested on: UACC-257 melanoma
DU-145 prostate = tested on: DU-145 prostate
MDA-MB-231 breast = tested on: MDA-MB-231 breast
CAKI-1 renal = tested on: CAKI-1 renal
OVCAR-5 ovarian = tested on: OVCAR-5 ovarian
M14 melanoma = tested on: M14 melanoma
RPMI-8226 leukemia = tested on: RPMI-8226 leukemia
BT-549 breast = tested on: BT-549 breast
HOP-62 NSCLC = tested on: HOP-62 NSCLC
RXF 393 renal = tested on: RXF 393 renal
CCRF-CEM leukemia = tested on: CCRF-CEM leukemia
UACC-62 melanoma = tested on: UACC-62 melanoma
NCI-H460 lung = tested on: NCI-H460 lung
HL-60(TB) leukemia = tested on: HL-60(TB) leukemia
SNB-19 CNS = tested on: SNB-19 CNS
SK-OV-3 ovarian = tested on: SK-OV-3 ovarian
IGROV1 ovarian = tested on: IGROV1 ovarian
HCC-2998 colon = tested on: HCC-2998 colon
KM12 colon = tested on: KM12 colon
SN12C renal = tested on: SN12C renal

Work on `COc1cc2nc(N3CCCC3)nc(NCCc3ccccc3)c2cc1OC` yielded a GI50 (SF-539 CNS) of 1.78 µM, a TGI (SF-539 CNS) of 3.21 µM and a GI50 (786-0 renal) of 1.71 µM. For the same molecule, the TGI (786-0 renal) was 3.21 µM, the GI50 (HCT-15 colon) was 1.67 µM and the TGI (HCT-15 colon) was 3.26 µM. It also gave a GI50 (EKVX NSCLC) of 1.85 µM, a TGI (EKVX NSCLC) of 3.9 µM and a GI50 (MCF7 breast) of 1.17 µM. For the same molecule, the TGI (MCF7 breast) was 2.85 µM, the GI50 (HT29 colon) was 1.81 µM and the TGI (HT29 colon) was 4.19 µM. The GI50 (SW-620 colon) was 1.38 µM, the TGI (SW-620 colon) was 3.07 µM and the GI50 (SF-268 CNS) was 1.97 µM. It also gave a TGI (SF-268 CNS) of 3.95 µM, a GI50 (NCI-H23 lung) of 1.8 µM and a TGI (NCI-H23 lung) of 3.64 µM. It also gave a GI50 (UO-31 renal) of 1.29 µM, a TGI (UO-31 renal) of 2.69 µM and a GI50 (ACHN renal) of 1.67 µM. For the same molecule, the TGI (ACHN renal) was 3.04 µM, the GI50 (PC-3 prostate) was 1.68 µM and the TGI (PC-3 prostate) was 3.91 µM. The GI50 (SNB-75 CNS) was 1.52 µM, the TGI (SNB-75 CNS) was 2.89 µM and the GI50 (T-47D breast) was 1.94 µM. It also gave a TGI (T-47D breast) of 4.41 µM, a GI50 (MALME-3M melanoma) of 1.9 µM and a TGI (MALME-3M melanoma) of 3.38 µM. For the same molecule, the GI50 (A498 renal) was 1.64 µM, the TGI (A498 renal) was 3.5 µM and the GI50 (SK-MEL-2 melanoma) was 2.02 µM. For the same molecule, the TGI (SK-MEL-2 melanoma) was 3.91 µM, the GI50 (OVCAR-3 ovarian) was 1.96 µM and the TGI (OVCAR-3 ovarian) was 3.68 µM. For the same molecule, the GI50 (NCI-H522 lung) was 1.99 µM, the TGI (NCI-H522 lung) was 4.54 µM and the GI50 (K-562 leukemia) was 1.81 µM. The TGI (K-562 leukemia) was over 100 µM, the GI50 (OVCAR-4 ovarian) was 1.76 µM and the TGI (OVCAR-4 ovarian) was 3.71 µM. The GI50 (SF-295 CNS) was 1.8 µM, the TGI (SF-295 CNS) was 3.43 µM and the GI50 (MDA-MB-435) was 1.74 µM. The TGI (MDA-MB-435) was 3.25 µM, the GI50 (MOLT-4 leukemia) was 2.43 µM and the TGI (MOLT-4 leukemia) was 7.69 µM. It also gave a GI50 (OVCAR-8 ovarian) of 2.14 µM, a TGI (OVCAR-8 ovarian) of 6.05 µM and a GI50 (HOP-92 NSCLC) of 1.48 µM. It also gave a TGI (HOP-92 NSCLC) of 3.16 µM, a GI50 (SK-MEL-5 melanoma) of 1.7 µM and a TGI (SK-MEL-5 melanoma) of 3.15 µM. For the same molecule, the GI50 (NCI-H226 lung) was 11.4 µM, the TGI (NCI-H226 lung) was 34 µM and the GI50 (TK-10 renal) was 1.97 µM. The TGI (TK-10 renal) was 3.56 µM, the GI50 (SK-MEL-28 melanoma) was 1.66 µM and the TGI (SK-MEL-28 melanoma) was 3.03 µM. It also gave a GI50 (SR leukemia) of 0.653 µM, a TGI (SR leukemia) of 5.74 µM and a GI50 (UACC-257 melanoma) of 1.89 µM. It also gave a TGI (UACC-257 melanoma) of 3.85 µM, a GI50 (DU-145 prostate) of 2.11 µM and a TGI (DU-145 prostate) of 5.11 µM. The GI50 (MDA-MB-231 breast) was 1.79 µM, the TGI (MDA-MB-231 breast) was 3.35 µM and the GI50 (CAKI-1 renal) was 1.66 µM. For the same molecule, the TGI (CAKI-1 renal) was 3.19 µM, the GI50 (OVCAR-5 ovarian) was 1.72 µM and the TGI (OVCAR-5 ovarian) was 3.21 µM. It also gave a GI50 (M14 melanoma) of 1.8 µM, a TGI (M14 melanoma) of 3.69 µM and a GI50 (RPMI-8226 leukemia) of 2.18 µM. The TGI (RPMI-8226 leukemia) was 5.75 µM, the GI50 (BT-549 breast) was 1.75 µM and the TGI (BT-549 breast) was 3.51 µM. For the same molecule, the GI50 (HOP-62 NSCLC) was 1.93 µM, the TGI (HOP-62 NSCLC) was 3.86 µM and the GI50 (RXF 393 renal) was 1.28 µM. For the same molecule, the TGI (RXF 393 renal) was 2.76 µM, the GI50 (CCRF-CEM leukemia) was 1.44 µM and the TGI (CCRF-CEM leukemia) was 10.6 µM. For the same molecule, the GI50 (UACC-62 melanoma) was 1.65 µM, the TGI (UACC-62 melanoma) was 3.06 µM and the GI50 (NCI-H460 lung) was 1.86 µM. It also gave a TGI (NCI-H460 lung) of 3.54 µM, a GI50 (HL-60(TB) leukemia) of 1.85 µM and a TGI (HL-60(TB) leukemia) of 4.25 µM. The GI50 (SNB-19 CNS) was 1.74 µM, the TGI (SNB-19 CNS) was 3.3 µM and the GI50 (SK-OV-3 ovarian) was 1.93 µM. For the same molecule, the TGI (SK-OV-3 ovarian) was 3.56 µM, the GI50 (IGROV1 ovarian) was 1.51 µM and the TGI (IGROV1 ovarian) was 2.95 µM. For the same molecule, the GI50 (HCC-2998 colon) was 1.96 µM, the TGI (HCC-2998 colon) was 3.64 µM and the GI50 (KM12 colon) was 1.96 µM. For the same molecule, the TGI (KM12 colon) was 3.74 µM, the GI50 (SN12C renal) was 1.87 µM and the TGI (SN12C renal) was 3.79 µM.
